Measurements taken from patent publication US9315546B2, “Growth hormone secretatogue receptor antagonists and uses thereof” (The Administrators of the Tulane Educational Fund, priority 2010, dated 2016).
Several values for one entry are separate records, joined by “and”; a condition that tells them apart may be missing. Identical values can stand only once. Where no end group is shown, it is not given here. [ ]: non-standard residue; d: D form.

Target: Ghrelin/GHRP/GHS Receptor (Rattus norvegicus, UniProt O08725)
Test: GH release from cell culture of pituitary cells
Type: cell-based
Set-up: After dispersion, the cells were collected by centrifugation, wash with DMEM and placed into culture well; endogenous in cells; host or cells: dispersed primary rat pituitary cells, 4 days in culture
Conditions: for Unstimulated Basal GH release: Table 8
Procedure: In vitro GH Release-Female rats of the CD-1 strain were housed in a constant temperature room at 24° C. with 14 h light and 10 h darkness. The rats were fed Purina Rat chow and water at libitum. All studies were started between 0800-1000 hours. Pituitaries of mature female Sprague Dawley rats were rapidly removed after decapitation, neurointermediate lobe discarded and then placed in a pH 7.4 buffer. The pituitaries were cut into ˜3-mm pieces and then transferred to a flask containing HEPS buffer with trypsin and incubated at 37° C. Cells were triturated several times during this period. After dispersion, the cells were collected by centrifugation, wash with DMEM and placed into culture well. Cell cultures were maintained for 4 days at 37° with 8% CO2 added to the incubator atmosphere. After 4 days in culture, cells were washed with lactated Ringer's solution adjusted to pH 7.2-7.4 and then vehicle, peptide alone or peptide plus stimulator was added to media. Incubation time was 60-120 minutes after which media was removed from each well for GH determination. The GH RIA reagents were distributed by the NIH. Control data was collected from cell cultures treated with only the corresponding vehicle in the absence of peptide or stimulator. Control stimulated data was collected from cell cultures treated with stimulator alone in the absence of any peptide.

[1] = Table 10, compound 1 μg/ml + stimulator 1 ng/ml
[2] = Table 10, compound 3 μg/ml + stimulator 1 ng/ml
[3] = Table 10, compound 10 μg/ml + stimulator 1 ng/ml
[4] = Table 10, compound 30 μg/ml + stimulator 1 ng/ml
[5] = Table 10, compound alone 1 μg/ml
[6] = Table 10, compound alone 3 μg/ml
[7] = Table 10, compound alone 10 μg/ml
[8] = Table 10, compound alone 30 μg/ml
[9] = Table 11, compound 10 μg/ml + stimulator 1 ng/ml
[10] = Table 11, compound 30 μg/ml + stimulator 1 ng/ml
[11] = Table 11, compound alone 10 μg/ml
[12] = Table 11, compound alone 30 μg/ml

Ghrelin/GHRP/GHS Receptor, sequence (O08725 whole entry): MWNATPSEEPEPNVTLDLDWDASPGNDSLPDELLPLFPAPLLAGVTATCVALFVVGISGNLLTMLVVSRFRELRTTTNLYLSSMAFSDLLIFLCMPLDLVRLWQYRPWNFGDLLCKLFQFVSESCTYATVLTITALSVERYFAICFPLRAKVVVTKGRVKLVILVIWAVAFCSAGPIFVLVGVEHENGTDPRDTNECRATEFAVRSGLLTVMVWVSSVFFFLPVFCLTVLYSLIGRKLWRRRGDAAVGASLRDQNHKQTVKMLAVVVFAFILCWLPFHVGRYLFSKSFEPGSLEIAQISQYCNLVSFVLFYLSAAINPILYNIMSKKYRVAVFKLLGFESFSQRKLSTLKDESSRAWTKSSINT

## [dK]Y[dW][dW]F-NH2 [8-DLys-Tyr-DTrp-DTrp-Phe-NH2]
Peptide 1 μg/ml
  Unstimulated Basal GH release: 1451 ± 19 ng/mL
Peptide 3 μg/ml
  Unstimulated Basal GH release: 1175 ± 77 ng/mL
Peptide 10 μg/ml
  Unstimulated Basal GH release: 1129 ± 6 ng/mL
Peptide 30 μg/ml
  Unstimulated Basal GH release: 744 ± 44 ng/mL

## COc1ccccc1N1CCN(C(=O)c2cc3ccccc3cc2C(=O)N2CCN(c3ccccc3OC)CC2)CC1 [2,3-di[N-(2-methoxylphenyl)piperazyl-naphthalenecarboxylamide]
[1]
  Stimulated GH release (P + S): 654 ± 18 ng/mL
[2]
  Stimulated GH release (P + S): 442 ± 4 ng/mL
[3]
  Stimulated GH release (P + S): 537 ± 28 ng/mL and 648 ± 16 ng/mL
[4]
  Stimulated GH release (P + S): 309 ± 46 ng/mL
[5]
  Unstimulated GH release: 338 ± 3 ng/mL
[6]
  Unstimulated GH release: 204 ± 10 ng/mL
[7]
  Unstimulated GH release: 262 ± 4 ng/mL and 136 ± 11 ng/mL
[8]
  Unstimulated GH release: 118 ± 8 ng/mL

## 2-[acetylester]-3-(p-m-methoxyl phenyl) piperidinamide]-naphthalene carboxamide
[3]
  Stimulated GH release (P + S): 480 ± 9 ng/mL
[4]
  Stimulated GH release (P + S): 223 ± 22 ng/mL
[7]
  Unstimulated GH release: 373 ± 2 ng/mL
[8]
  Unstimulated GH release: 176 ± 11 ng/mL

## N[C@H](COCc1ccccc1)C(=O)N1CCN(c2ccccc2)CC1 [6-D Ser(BZL)-N′-phenyl-N-piperazinamide, D Ser(BZL)-N′-phenyl-N-piperazinamide]
[3]
  Stimulated GH release (P + S): 719 ± 26 ng/mL
[4]
  Stimulated GH release (P + S): 435 ± 0 ng/mL
[7]
  Unstimulated GH release: 585 ± 10 ng/mL
[8]
  Unstimulated GH release: 368 ± 2 ng/mL

## COC(=O)c1cc2ccccc2cc1C(=O)Nc1ccc(C)cc1 [2-[methylester]-3-[p-methylphenylamidenaphthalenecarboxylamide]
[9]
  Stimulated GH release (P + S): 1149 ± 33 ng/mL
[10]
  Stimulated GH release (P + S): 886 ± 29 ng/mL
[11]
  Unstimulated GH release: 754 ± 32 ng/mL
[12]
  Unstimulated GH release: 498 ± 26 ng/mL

## N[C@H](Cc1c[nH]c2ccccc12)C(=O)N1CCC(c2ccccc2)CC1 [1-DTrp-4-phenylpiperdinamide, DTrp-4-phenylpiperdinamide]
[1]
  Stimulated GH release (P + S): 1085 ± 1 ng/mL
[2]
  Stimulated GH release (P + S): 917 ± 4 ng/mL
[3]
  Stimulated GH release (P + S): 344 ± 6 ng/mL
[4]
  Stimulated GH release (P + S): 486 ± 29 ng/mL
[5]
  Unstimulated GH release: 815 ± 26 ng/mL
[6]
  Unstimulated GH release: 390 ± 35 ng/mL
[7]
  Unstimulated GH release: 520 ± 61 ng/mL
[8]
  Unstimulated GH release: 577 ± 24 ng/mL

## Ac-DβNal-PlcLys-ILys-DPhe-NH2 [11-Ac-DβNal-PlcLys-ILys-DPhe-NH2]
Peptide 3 μg/ml
  Unstimulated Basal GH release: 1013 ± 207 ng/mL
Peptide 10 μg/ml
  Unstimulated Basal GH release: 976 ± 13 ng/mL
Peptide 30 μg/ml
  Unstimulated Basal GH release: 928 ± 16 ng/mL

## CC(C)(N)C(=O)N[C@H](COCc1ccccc1)C(=O)N1CCN(c2ccccc2)CC1 [αAibDSer(BZL)-N′-phenyl-N-piperazinamide]
[3]
  Stimulated GH release (P + S): 878 ± 30 ng/mL
[4]
  Stimulated GH release (P + S): 510 ± 15 ng/mL
[7]
  Unstimulated GH release: 777 ± 34 ng/mL
[8]
  Unstimulated GH release: 499 ± 18 ng/mL

## COc1ccccc1C1CCN(C(=O)[C@@H](Cc2c[nH]c3ccccc23)NC(=O)C(C)(C)N)CC1 [αAibDTrp-p-(α-methoxylphenyl) piperidinamide]
[9]
  Stimulated GH release (P + S): 441 ± 21 ng/mL
[10]
  Stimulated GH release (P + S): 384 ± 16 ng/mL
[11]
  Unstimulated GH release: 365 ± 2 ng/mL
[12]
  Unstimulated GH release: 375 ± 30 ng/mL

## Benzamide-DSerDLysTrp-p-phenylpiperidinamide
[2]
  Stimulated GH release (P + S): 432 ± 25 ng/mL
[3]
  Stimulated GH release (P + S): 353 ± 10 ng/mL
[6]
  Unstimulated GH release: 393 ± 54 ng/mL
[7]
  Unstimulated GH release: 369 ± 30 ng/mL

## Arg-DTrp-Leu-Tyr-Trp-Pro(cyclic Arg-Pro) (WLYWP; HELM PEPTIDE1{R.[dW].L.Y.W.P}$PEPTIDE1,PEPTIDE1,1:R1-6:R2$$$V2.0; SMILES CC(C)C[C@@H]1NC(=O)[C@@H](Cc2c[nH]c3ccccc23)NC(=O)[C@H](CCCNC(=N)N)NC(=O)[C@@H]2CCCN2C(=O)[C@H](Cc2c[nH]c3ccccc23)NC(=O)[C@H](Cc2ccc(O)cc2)NC1=O)
Peptide 3 μg/ml
  Unstimulated Basal GH release: 1480 ± 19 ng/mL
Peptide 10 μg/ml
  Unstimulated Basal GH release: 802 ± 26 ng/mL
Peptide 30 μg/ml
  Unstimulated Basal GH release: 601 ± 16 ng/mL
Peptide 100 μg/ml
  Unstimulated Basal GH release: 509 ± 49 ng/mL

## p-phenyl(piperidinamide-DTrpLysSer(BZL)-acetylamide
Table 11, compound 1 μg/ml + stimulator 1 ng/ml
  Stimulated GH release (P + S): 680 ± 13 ng/mL
Table 11, compound 3 μg/ml + stimulator 1 ng/ml
  Stimulated GH release (P + S): 489 ± 41 ng/mL
[9]
  Stimulated GH release (P + S): 245 ± 16 ng/mL

## γAbuDTrp-p-[m-methoxyphenyl] piperidinamide
[9]
  Stimulated GH release (P + S): 526 ± 27 ng/mL
[10]
  Stimulated GH release (P + S): 428 ± 22 ng/mL
[11]
  Unstimulated GH release: 557 ± 19 ng/mL
[12]
  Unstimulated GH release: 378 ± 18 ng/mL

## 1,3-diaminobutyricamide-DβNal-4-phenylpiperidinamide
[9]
  Stimulated GH release (P + S): 644 ± 33 ng/mL
[10]
  Stimulated GH release (P + S): 529 ± 20 ng/mL
[11]
  Unstimulated GH release: 794 ± 34 ng/mL
[12]
  Unstimulated GH release: 504 ± 20 ng/mL

## CCOC(=O)c1cc2ccccc2cc1C(=O)Nc1cccc(OC)c1 [2-[ethylester-3-m-methoxylphenylamide] naphthalene carboxylamide]
[9]
  Stimulated GH release (P + S): 670 ± 32 ng/mL
[10]
  Stimulated GH release (P + S): 458 ± 15 ng/mL
[11]
  Unstimulated GH release: 698 ± 18 ng/mL
[12]
  Unstimulated GH release: 552 ± 20 ng/mL

## αAib-DTrp-DcyclohexylAla-NH2 [3-αAib-DTrp-DcyclohexylAla-NH2]
Peptide 1 μg/ml
  Unstimulated Basal GH release: 980 ± 44 ng/mL
Peptide 3 μg/ml
  Unstimulated Basal GH release: 826 ± 32 ng/mL
Peptide 10 μg/ml
  Unstimulated Basal GH release: 602 ± 53 ng/mL
Peptide 30 μg/ml
  Unstimulated Basal GH release: 492 ± 11 ng/mL

## DPhe-Ala-Phe-DPal-NH2 [6-DPhe-Ala-Phe-DPal-NH2]
Peptide 3 μg/ml
  Unstimulated Basal GH release: 170 ± 19 ng/mL
Peptide 10 μg/ml
  Unstimulated Basal GH release: 181 ± 31 ng/mL
Peptide 30 μg/ml
  Unstimulated Basal GH release: 161 ± 20 ng/mL
Peptide 100 μg/ml
  Unstimulated Basal GH release: 146 ± 21 ng/mL

## C=C(C)CON=C(c1ccccc1)c1ccccc1 [5-O-(2-methylallyl) benzophonone oxime, O-(2-methylallyl) benzophonone oxime]
[3]
  Stimulated GH release (P + S): 1281 ± 58 ng/mL
[4]
  Stimulated GH release (P + S): 699 ± 53 ng/mL
[7]
  Unstimulated GH release: 929 ± 28 ng/mL
[8]
  Unstimulated GH release: 616 ± 23 ng/mL

## Ser(Bzl)Lys(Ac)DTrp-p-phenylpiperidinamide
[3]
  Stimulated GH release (P + S): 571 ± 32 ng/mL
[4]
  Stimulated GH release (P + S): 399 ± 24 ng/mL
[7]
  Unstimulated GH release: 388 ± 41 ng/mL
[8]
  Unstimulated GH release: 273 ± 39 ng/mL
